Source: ChEMBL document CHEMBL3991601, “The target landscape of clinical kinase drugs” (Science, 2017)
Calls of active or inactive are those of the source. Rule as the data show it, for most assays here: actives have a measured Kd and inactives only a lower limit.

The molecules below were run against Mitotic checkpoint serine/threonine-protein kinase BUB1 (Homo sapiens, UniProt O43683).
Also: in the data inactive means no Kd found up to 30 µM.

Sequence of Mitotic checkpoint serine/threonine-protein kinase BUB1 (O43683 whole entry): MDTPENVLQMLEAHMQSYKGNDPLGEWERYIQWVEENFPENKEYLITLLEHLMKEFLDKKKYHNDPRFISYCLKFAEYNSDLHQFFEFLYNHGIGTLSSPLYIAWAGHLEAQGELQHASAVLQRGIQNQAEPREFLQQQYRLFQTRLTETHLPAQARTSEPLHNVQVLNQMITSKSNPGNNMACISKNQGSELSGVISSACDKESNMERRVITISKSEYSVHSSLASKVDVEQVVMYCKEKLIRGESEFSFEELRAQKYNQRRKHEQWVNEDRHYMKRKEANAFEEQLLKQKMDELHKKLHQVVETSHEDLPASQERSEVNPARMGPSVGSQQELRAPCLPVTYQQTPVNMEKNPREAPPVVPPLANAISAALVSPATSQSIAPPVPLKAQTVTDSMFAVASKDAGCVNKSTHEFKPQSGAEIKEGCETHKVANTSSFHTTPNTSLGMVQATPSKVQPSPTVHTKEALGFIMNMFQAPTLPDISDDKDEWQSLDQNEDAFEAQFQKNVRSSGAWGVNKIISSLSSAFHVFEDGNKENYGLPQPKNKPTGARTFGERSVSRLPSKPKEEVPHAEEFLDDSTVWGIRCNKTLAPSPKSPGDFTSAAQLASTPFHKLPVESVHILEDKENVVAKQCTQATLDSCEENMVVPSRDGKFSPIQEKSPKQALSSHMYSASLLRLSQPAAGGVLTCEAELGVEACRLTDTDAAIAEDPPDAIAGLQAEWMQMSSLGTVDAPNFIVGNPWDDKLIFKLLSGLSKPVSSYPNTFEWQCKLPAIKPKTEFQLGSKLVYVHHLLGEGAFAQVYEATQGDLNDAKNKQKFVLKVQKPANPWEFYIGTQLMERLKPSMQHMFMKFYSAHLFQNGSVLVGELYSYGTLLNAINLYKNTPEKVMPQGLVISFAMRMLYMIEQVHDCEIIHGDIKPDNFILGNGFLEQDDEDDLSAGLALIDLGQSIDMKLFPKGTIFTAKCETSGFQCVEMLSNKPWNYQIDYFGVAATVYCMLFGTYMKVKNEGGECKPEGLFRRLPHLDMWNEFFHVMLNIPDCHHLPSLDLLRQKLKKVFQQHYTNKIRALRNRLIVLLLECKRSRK

**Q.** How did the Kd turn out when `COc1cc(CCc2cc(NC(=O)c3ccc(N4C[C@@H](C)N[C@@H](C)C4)cc3)n[nH]2)cc(OC)c1` [AZD-4547] was run?
**A.** > 30 µM (inactive)

**Q.** With `Cc1nc(N)sc1-c1ccnc(Nc2ccc(N3CCOCC3)cc2)n1` [CYC-116] as the molecule, how does the Kd read?
**A.** 0.111 µM (active)

**Q.** `CCc1cnn2c(NCc3ccc[n+]([O-])c3)cc(N3CCCC[C@H]3CCO)nc12` [DINACICLIB] was tested. Which Kd did it give?
**A.** > 30 µM (inactive)

These molecules were tested against T1, Ferrochelatase, mitochondrial (Homo sapiens, UniProt P22830).
T1 sequence (P22830 whole entry): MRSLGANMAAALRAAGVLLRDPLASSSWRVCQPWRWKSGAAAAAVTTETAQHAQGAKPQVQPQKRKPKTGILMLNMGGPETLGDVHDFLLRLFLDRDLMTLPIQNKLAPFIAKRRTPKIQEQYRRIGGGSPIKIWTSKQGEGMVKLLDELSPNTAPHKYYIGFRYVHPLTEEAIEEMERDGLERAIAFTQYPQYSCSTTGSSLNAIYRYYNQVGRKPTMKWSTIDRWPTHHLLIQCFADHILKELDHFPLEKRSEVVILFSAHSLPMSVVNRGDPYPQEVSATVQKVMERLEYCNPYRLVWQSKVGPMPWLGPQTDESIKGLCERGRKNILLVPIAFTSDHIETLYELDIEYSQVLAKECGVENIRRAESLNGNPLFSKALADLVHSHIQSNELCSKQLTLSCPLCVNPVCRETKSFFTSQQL

**Q.** With `COc1cc(CCc2cc(NC(=O)c3ccc(N4C[C@@H](C)N[C@@H](C)C4)cc3)n[nH]2)cc(OC)c1` [AZD-4547] as the molecule, how does the Kd read?
**A.** > 30 µM (inactive)

**Q.** How did the Kd turn out when `Cc1nc(N)sc1-c1ccnc(Nc2ccc(N3CCOCC3)cc2)n1` [CYC-116] was run?
**A.** 0.783 µM (active)

**Q.** With `CCc1cnn2c(NCc3ccc[n+]([O-])c3)cc(N3CCCC[C@H]3CCO)nc12` [DINACICLIB] as the molecule, how does the Kd read?
**A.** > 30 µM (inactive)

What follows are molecules tested against T2, Interleukin-1 receptor-associated kinase 3 (Homo sapiens, UniProt Q9Y616).
T2 sequence (Q9Y616 whole entry): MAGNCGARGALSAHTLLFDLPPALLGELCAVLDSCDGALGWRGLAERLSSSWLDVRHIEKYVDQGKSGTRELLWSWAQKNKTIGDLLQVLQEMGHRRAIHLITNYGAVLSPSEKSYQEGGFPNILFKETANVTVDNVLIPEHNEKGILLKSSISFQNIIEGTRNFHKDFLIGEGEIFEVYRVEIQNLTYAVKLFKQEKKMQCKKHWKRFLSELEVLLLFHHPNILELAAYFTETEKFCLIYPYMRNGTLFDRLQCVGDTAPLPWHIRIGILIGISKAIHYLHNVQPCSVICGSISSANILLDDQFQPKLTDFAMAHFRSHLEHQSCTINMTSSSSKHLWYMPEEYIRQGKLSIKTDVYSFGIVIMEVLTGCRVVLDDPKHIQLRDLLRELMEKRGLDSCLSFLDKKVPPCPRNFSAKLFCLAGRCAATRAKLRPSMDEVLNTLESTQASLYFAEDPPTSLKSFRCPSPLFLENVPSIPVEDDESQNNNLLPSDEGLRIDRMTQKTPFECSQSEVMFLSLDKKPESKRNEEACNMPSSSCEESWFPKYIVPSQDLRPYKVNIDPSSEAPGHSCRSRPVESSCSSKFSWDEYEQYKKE

**Q.** For `COc1cc(CCc2cc(NC(=O)c3ccc(N4C[C@@H](C)N[C@@H](C)C4)cc3)n[nH]2)cc(OC)c1` [AZD-4547], which Kd is on record?
**A.** > 30 µM (inactive)

**Q.** How did the Kd turn out when `Cc1nc(N)sc1-c1ccnc(Nc2ccc(N3CCOCC3)cc2)n1` [CYC-116] was run?
**A.** 0.057 µM (active)

**Q.** With `CCc1cnn2c(NCc3ccc[n+]([O-])c3)cc(N3CCCC[C@H]3CCO)nc12` [DINACICLIB] as the molecule, how does the Kd read?
**A.** > 30 µM (inactive)

These molecules were tested against Mitogen-activated protein kinase kinase kinase kinase 5 (Homo sapiens, UniProt Q9Y4K4).
Sequence of Mitogen-activated protein kinase kinase kinase kinase 5 (Q9Y4K4 whole entry): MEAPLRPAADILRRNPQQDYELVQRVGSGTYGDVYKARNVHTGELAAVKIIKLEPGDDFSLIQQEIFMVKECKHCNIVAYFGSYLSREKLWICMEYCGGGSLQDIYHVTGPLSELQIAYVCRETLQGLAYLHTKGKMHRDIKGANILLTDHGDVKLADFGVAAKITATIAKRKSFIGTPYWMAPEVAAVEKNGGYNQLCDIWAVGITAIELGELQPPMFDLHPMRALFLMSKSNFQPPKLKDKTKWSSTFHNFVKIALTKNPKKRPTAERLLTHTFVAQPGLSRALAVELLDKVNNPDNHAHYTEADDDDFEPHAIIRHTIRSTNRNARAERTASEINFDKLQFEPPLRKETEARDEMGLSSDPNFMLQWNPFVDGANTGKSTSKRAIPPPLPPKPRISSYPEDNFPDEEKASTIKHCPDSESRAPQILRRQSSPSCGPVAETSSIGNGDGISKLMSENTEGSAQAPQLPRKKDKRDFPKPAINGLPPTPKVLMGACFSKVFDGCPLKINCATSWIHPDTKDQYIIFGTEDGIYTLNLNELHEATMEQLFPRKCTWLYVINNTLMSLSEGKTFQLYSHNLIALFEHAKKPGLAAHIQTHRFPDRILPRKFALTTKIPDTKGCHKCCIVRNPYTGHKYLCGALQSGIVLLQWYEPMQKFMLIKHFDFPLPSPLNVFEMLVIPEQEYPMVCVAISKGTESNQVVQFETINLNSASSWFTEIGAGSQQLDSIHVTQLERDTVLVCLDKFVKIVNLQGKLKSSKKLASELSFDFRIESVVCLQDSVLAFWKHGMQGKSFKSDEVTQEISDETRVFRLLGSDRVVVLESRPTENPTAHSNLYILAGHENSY

**Q.** For `COc1cc(CCc2cc(NC(=O)c3ccc(N4C[C@@H](C)N[C@@H](C)C4)cc3)n[nH]2)cc(OC)c1` [AZD-4547], which Kd is on record?
**A.** 0.006 µM (active)

**Q.** Which Kd does the source give for `CCc1cnn2c(NCc3ccc[n+]([O-])c3)cc(N3CCCC[C@H]3CCO)nc12` [DINACICLIB] here?
**A.** > 30 µM (inactive)

What follows are molecules tested against T3, DNA replication licensing factor MCM4 (Homo sapiens, UniProt P33991).
T3 sequence (P33991 whole entry): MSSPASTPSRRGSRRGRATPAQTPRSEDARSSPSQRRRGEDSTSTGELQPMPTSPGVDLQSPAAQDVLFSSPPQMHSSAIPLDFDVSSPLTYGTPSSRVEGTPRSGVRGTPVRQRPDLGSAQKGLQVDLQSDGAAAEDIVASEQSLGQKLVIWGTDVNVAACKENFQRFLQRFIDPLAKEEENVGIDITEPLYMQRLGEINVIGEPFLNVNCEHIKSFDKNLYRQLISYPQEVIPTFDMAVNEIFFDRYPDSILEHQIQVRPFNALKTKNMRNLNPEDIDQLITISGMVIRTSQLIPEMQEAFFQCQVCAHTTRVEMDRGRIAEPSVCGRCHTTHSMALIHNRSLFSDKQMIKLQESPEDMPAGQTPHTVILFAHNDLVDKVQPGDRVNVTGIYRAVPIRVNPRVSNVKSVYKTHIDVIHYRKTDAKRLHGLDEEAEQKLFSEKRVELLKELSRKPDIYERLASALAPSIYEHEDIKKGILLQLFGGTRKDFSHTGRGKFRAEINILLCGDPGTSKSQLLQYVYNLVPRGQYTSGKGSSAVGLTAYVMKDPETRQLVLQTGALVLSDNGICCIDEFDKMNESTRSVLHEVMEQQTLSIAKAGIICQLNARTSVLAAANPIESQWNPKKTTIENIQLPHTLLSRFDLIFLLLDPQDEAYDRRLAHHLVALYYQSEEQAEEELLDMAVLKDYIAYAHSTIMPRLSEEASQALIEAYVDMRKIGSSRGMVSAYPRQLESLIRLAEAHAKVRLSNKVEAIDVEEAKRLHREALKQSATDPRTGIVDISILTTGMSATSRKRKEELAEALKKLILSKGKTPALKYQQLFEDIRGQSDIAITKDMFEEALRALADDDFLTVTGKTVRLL

**Q.** `COc1cc(CCc2cc(NC(=O)c3ccc(N4C[C@@H](C)N[C@@H](C)C4)cc3)n[nH]2)cc(OC)c1` [AZD-4547] was tested. Which Kd did it give?
**A.** > 30 µM (inactive)

**Q.** How did the Kd turn out when `Cc1nc(N)sc1-c1ccnc(Nc2ccc(N3CCOCC3)cc2)n1` [CYC-116] was run?
**A.** > 30 µM (inactive)

**Q.** With `CCc1cnn2c(NCc3ccc[n+]([O-])c3)cc(N3CCCC[C@H]3CCO)nc12` [DINACICLIB] as the molecule, how does the Kd read?
**A.** > 30 µM (inactive)

These molecules were tested against Protein-tyrosine kinase 6 (Homo sapiens, UniProt Q13882).
Sequence of Protein-tyrosine kinase 6 (Q13882 whole entry): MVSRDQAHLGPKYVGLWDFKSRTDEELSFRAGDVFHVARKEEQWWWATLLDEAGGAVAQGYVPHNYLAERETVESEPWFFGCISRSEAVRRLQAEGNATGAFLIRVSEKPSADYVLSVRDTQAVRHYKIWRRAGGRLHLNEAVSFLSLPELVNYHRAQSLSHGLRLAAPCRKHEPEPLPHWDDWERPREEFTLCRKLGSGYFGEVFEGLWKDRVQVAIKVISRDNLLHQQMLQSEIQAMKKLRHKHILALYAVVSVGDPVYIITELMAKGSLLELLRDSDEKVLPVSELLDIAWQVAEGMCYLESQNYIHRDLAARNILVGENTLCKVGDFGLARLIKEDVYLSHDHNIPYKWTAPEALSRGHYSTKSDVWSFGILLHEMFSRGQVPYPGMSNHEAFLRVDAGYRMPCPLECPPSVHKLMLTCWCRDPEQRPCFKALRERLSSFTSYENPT

**Q.** For `COc1cc(CCc2cc(NC(=O)c3ccc(N4C[C@@H](C)N[C@@H](C)C4)cc3)n[nH]2)cc(OC)c1` [AZD-4547], which Kd is on record?
**A.** > 30 µM (inactive)

**Q.** With `CCc1cnn2c(NCc3ccc[n+]([O-])c3)cc(N3CCCC[C@H]3CCO)nc12` [DINACICLIB] as the molecule, how does the Kd read?
**A.** > 30 µM (inactive)

What follows are molecules tested against T4, Ras-related protein Rab-27A (Homo sapiens, UniProt P51159).
T4 sequence (P51159 whole entry): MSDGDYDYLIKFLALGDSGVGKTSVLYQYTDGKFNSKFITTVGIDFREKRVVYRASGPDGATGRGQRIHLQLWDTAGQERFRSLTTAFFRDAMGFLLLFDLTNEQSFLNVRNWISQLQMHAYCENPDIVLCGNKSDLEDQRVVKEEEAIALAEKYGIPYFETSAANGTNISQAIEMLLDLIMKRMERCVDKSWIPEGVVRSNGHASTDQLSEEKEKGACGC

**Q.** With `Cc1nc(N)sc1-c1ccnc(Nc2ccc(N3CCOCC3)cc2)n1` [CYC-116] as the molecule, how does the Kd read?
**A.** > 30 µM (inactive)

**Q.** `CCc1cnn2c(NCc3ccc[n+]([O-])c3)cc(N3CCCC[C@H]3CCO)nc12` [DINACICLIB] was tested. Which Kd did it give?
**A.** > 30 µM (inactive)

The molecules below were run against Ras-related protein Rab-6A (Homo sapiens, UniProt P20340).
Sequence of Ras-related protein Rab-6A (P20340 whole entry): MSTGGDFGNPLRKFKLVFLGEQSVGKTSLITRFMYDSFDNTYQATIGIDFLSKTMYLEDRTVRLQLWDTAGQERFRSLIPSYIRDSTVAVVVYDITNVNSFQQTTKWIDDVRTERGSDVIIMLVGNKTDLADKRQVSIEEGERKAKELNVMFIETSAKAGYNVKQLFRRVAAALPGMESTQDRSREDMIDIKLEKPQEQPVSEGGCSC

**Q.** `COc1cc(CCc2cc(NC(=O)c3ccc(N4C[C@@H](C)N[C@@H](C)C4)cc3)n[nH]2)cc(OC)c1` [AZD-4547] was tested. Which Kd did it give?
**A.** > 30 µM (inactive)

**Q.** `Cc1nc(N)sc1-c1ccnc(Nc2ccc(N3CCOCC3)cc2)n1` [CYC-116] was tested. Which Kd did it give?
**A.** > 30 µM (inactive)

**Q.** Which Kd does the source give for `CCc1cnn2c(NCc3ccc[n+]([O-])c3)cc(N3CCCC[C@H]3CCO)nc12` [DINACICLIB] here?
**A.** > 30 µM (inactive)

Each molecule was assayed against T5, ADP/ATP translocase 3 (Homo sapiens, UniProt P12236).
T5 sequence (P12236 whole entry): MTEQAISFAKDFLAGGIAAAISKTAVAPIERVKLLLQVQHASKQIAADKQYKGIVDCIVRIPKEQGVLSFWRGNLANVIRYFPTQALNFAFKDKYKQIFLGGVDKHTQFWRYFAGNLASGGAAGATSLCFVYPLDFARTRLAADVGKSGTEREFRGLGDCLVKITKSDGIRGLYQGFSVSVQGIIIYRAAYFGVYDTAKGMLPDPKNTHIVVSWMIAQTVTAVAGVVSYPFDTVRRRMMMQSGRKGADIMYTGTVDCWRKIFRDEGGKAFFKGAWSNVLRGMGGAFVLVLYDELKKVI

**Q.** Which Kd does the source give for `COc1cc(CCc2cc(NC(=O)c3ccc(N4C[C@@H](C)N[C@@H](C)C4)cc3)n[nH]2)cc(OC)c1` [AZD-4547] here?
**A.** > 30 µM (inactive)

**Q.** For `Cc1nc(N)sc1-c1ccnc(Nc2ccc(N3CCOCC3)cc2)n1` [CYC-116], which Kd is on record?
**A.** > 30 µM (inactive)

**Q.** For `CCc1cnn2c(NCc3ccc[n+]([O-])c3)cc(N3CCCC[C@H]3CCO)nc12` [DINACICLIB], which Kd is on record?
**A.** > 30 µM (inactive)

The molecules below were run against Proto-oncogene tyrosine-protein kinase Src (Homo sapiens, UniProt P12931).
Sequence of Proto-oncogene tyrosine-protein kinase Src (P12931 2-536 limits assumed): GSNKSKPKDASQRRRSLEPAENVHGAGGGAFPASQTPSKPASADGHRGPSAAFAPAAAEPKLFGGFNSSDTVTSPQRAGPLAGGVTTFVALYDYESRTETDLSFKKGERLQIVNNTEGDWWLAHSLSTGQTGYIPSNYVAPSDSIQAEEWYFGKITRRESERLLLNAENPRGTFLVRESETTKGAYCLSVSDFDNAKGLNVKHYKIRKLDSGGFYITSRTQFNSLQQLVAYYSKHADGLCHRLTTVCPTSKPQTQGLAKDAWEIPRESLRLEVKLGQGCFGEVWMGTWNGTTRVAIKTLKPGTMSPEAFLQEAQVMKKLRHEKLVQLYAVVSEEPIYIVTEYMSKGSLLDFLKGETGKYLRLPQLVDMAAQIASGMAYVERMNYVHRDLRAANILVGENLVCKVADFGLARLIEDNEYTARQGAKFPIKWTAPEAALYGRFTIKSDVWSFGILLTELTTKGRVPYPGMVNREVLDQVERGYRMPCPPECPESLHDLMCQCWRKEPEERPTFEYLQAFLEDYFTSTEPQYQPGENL

**Q.** Which Kd does the source give for `COc1cc(CCc2cc(NC(=O)c3ccc(N4C[C@@H](C)N[C@@H](C)C4)cc3)n[nH]2)cc(OC)c1` [AZD-4547] here?
**A.** > 30 µM (inactive)

**Q.** With `CCc1cnn2c(NCc3ccc[n+]([O-])c3)cc(N3CCCC[C@H]3CCO)nc12` [DINACICLIB] as the molecule, how does the Kd read?
**A.** > 30 µM (inactive)

These molecules were tested against Serine/threonine-protein kinase 16 (Homo sapiens, UniProt O75716).
Sequence of Serine/threonine-protein kinase 16 (O75716 whole entry): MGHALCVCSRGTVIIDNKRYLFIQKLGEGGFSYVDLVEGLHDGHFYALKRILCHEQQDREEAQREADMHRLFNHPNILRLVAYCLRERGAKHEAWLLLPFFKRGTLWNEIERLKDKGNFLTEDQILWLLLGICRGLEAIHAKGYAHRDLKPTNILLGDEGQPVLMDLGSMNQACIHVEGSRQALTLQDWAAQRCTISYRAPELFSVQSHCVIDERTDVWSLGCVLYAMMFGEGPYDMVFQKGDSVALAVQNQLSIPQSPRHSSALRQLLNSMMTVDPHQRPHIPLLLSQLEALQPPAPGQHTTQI

**Q.** How did the Kd turn out when `COc1cc(CCc2cc(NC(=O)c3ccc(N4C[C@@H](C)N[C@@H](C)C4)cc3)n[nH]2)cc(OC)c1` [AZD-4547] was run?
**A.** > 30 µM (inactive)

**Q.** For `Cc1nc(N)sc1-c1ccnc(Nc2ccc(N3CCOCC3)cc2)n1` [CYC-116], which Kd is on record?
**A.** 0.21 µM (active)

**Q.** Which Kd does the source give for `CCc1cnn2c(NCc3ccc[n+]([O-])c3)cc(N3CCCC[C@H]3CCO)nc12` [DINACICLIB] here?
**A.** > 30 µM (inactive)

These molecules were tested against Tyrosine-protein kinase Yes (Homo sapiens, UniProt P07947).
Sequence of Tyrosine-protein kinase Yes (P07947 whole entry): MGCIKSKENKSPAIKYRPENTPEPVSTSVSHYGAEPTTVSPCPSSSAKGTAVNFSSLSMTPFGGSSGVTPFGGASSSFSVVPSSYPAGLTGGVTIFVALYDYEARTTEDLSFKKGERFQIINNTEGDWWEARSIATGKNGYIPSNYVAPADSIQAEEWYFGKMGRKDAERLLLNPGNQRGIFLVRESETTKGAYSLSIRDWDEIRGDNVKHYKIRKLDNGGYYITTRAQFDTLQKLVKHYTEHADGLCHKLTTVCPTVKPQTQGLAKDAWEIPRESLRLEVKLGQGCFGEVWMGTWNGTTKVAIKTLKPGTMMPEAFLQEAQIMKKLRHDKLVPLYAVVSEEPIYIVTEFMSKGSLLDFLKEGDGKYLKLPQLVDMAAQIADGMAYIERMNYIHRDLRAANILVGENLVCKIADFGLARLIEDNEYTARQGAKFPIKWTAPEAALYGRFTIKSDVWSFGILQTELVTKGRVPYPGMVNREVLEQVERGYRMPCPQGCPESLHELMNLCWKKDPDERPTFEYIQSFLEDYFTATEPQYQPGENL

**Q.** Which Kd does the source give for `COc1cc(CCc2cc(NC(=O)c3ccc(N4C[C@@H](C)N[C@@H](C)C4)cc3)n[nH]2)cc(OC)c1` [AZD-4547] here?
**A.** > 30 µM (inactive)

**Q.** `Cc1nc(N)sc1-c1ccnc(Nc2ccc(N3CCOCC3)cc2)n1` [CYC-116] was tested. Which Kd did it give?
**A.** > 30 µM (inactive)

**Q.** `CCc1cnn2c(NCc3ccc[n+]([O-])c3)cc(N3CCCC[C@H]3CCO)nc12` [DINACICLIB] was tested. Which Kd did it give?
**A.** > 30 µM (inactive)
